Experimental data from patent US9532970B2, “Compositions for anti-inflammatory, antioxidant effects and improved respiratory function by specific histone deacetylase inhibition” (priority 2014, dated 2017).
Like-named read-outs stand apart in the source and are kept apart here.

Tested on: Horse PBMC

Work on `C[S@@+]([O-])CCCCN=C=S` [LSF, (R)-1-Isothiocyanato-4-(methylsulfinyl)butane] yielded an NES (MSigDB gene set HAMAI APOPTOSIS VIA TRAIL UP) of 5.42, an NES (MSigDB gene set MCLACHLAN DENTAL CARIES UP) of −5.67 and an NES (MSigDB gene set MEISSNER BRAIN HCP WITH H3K4ME3 AND H3K27ME3) of −5.6. It also gave an NES (MSigDB gene set MILI PSEUDOPODIA HAPTOTAXIS UP) of 4.81, an NES (MSigDB gene set MODULE 45) of −5.9 and an NES (MSigDB gene set MODULE 46) of −6.22. It also gave an NES (MSigDB gene set MODULE 75) of −5.9, an NES (MSigDB gene set MODULE 84) of −7.87 and an NES (MSigDB gene set MRNA METABOLIC PROCESS) of 4.19. It also gave an NES (MSigDB gene set REACTOME GENERIC TRANSCRIPTION PATHWAY) of 4.19, an NES (MSigDB gene set RNA PROCESSING) of 4.02 and an NES (MSigDB gene set SHEN SMARCA2 TARGETS UP) of 5.39. It also gave an NES (MSigDB gene set V$NFMUE1 Q6) of 3.98, an NES (MSigDB gene set WALLACE PROSTATE CANCER RACE UP) of −5.66 and an NES (Reactome gene set ACTIVATION OF KAINATE RECEPTORS UPON GLUTAMATE BINDING) of −2.56. The NES (Reactome gene set ANTIGEN PROCESSING UBIQUITINATION PROTEASOME DEGRADATION) was 2.7, the NES (Reactome gene set ASSOCIATION OF TRIC CCT WITH TARGET PROTEINS DURING BIOSYNTHESIS) was 2.62 and the NES (Reactome gene set CLASS A1 RHODOPSIN LIKE RECEPTORS) was −2.68. For the same compound, the NES (Reactome gene set CLEAVAGE OF GROWING TRANSCRIPT IN THE TERMINATION REGION) was 3.33, the NES (Reactome gene set CYTOKINE SIGNALLING IN IMMUNE SYSTEM) was −2.84 and the NES (Reactome gene set DOWNSTREAM SIGNALING EVENTS OF B CELL RECEPTOR BCR) was 3.12. The NES (Reactome gene set G ALPHA1213 SIGNALLING EVENTS) was −2.54, the NES (Reactome gene set G ALPHA I SIGNALLING EVENTS) was −2.41 and the NES (Reactome gene set G ALPHA SIGNALLING EVENTS) was −2.82. The NES (Reactome gene set GABA RECEPTOR ACTIVATION) was −2.39, the NES (Reactome gene set GENERIC TRANSCRIPTION PATHWAY) was 4.23 and the NES (Reactome gene set GPCR DOWNSTREAM SIGNALING) was −3.63. The NES (Reactome gene set GPCR LIGAND BINDING) was −2.67, the NES (Reactome gene set HIV LIFE CYCLE) was 2.41 and the NES (Reactome gene set IMMUNOREGULATORY INTERACTIONS BETWEEN A LYMPHOID AND A NON LYMPHOID CELL) was −3.37. The NES (Reactome gene set INTERFERON ALPHA BETA SIGNALING) was −4, the NES (Reactome gene set INTERFERON GAMMA SIGNALING) was −3.9 and the NES (Reactome gene set INTERFERON SIGNALING) was −3.18. It also gave an NES (Reactome gene set LATE PHASE OF HIV LIFE CYCLE) of 2.44, an NES (Reactome gene set MHC CLASS II ANTIGEN PRESENTATION) of −2.47 and an NES (Reactome gene set MRNA 3 END PROCESSING) of 3.5. The NES (Reactome gene set MRNA PROCESSING) was 3.68, the NES (Reactome gene set MRNA SPLICING) was 3.09 and the NES (Reactome gene set OPIOID SIGNALLING) was −2.55. It also gave an NES (Reactome gene set PEPTIDE CHAIN ELONGATION) of −2.43, an NES (Reactome gene set PI3K EVENTS IN ERBB2 SIGNALING) of 2.49 and an NES (Reactome gene set PI3K EVENTS IN ERBB4 SIGNALING) of 2.52. It also gave an NES (Reactome gene set PIP3 ACTIVATES AKT SIGNALING) of 2.48, an NES (Reactome gene set PROCESSING OF CAPPED INTRON CONTAINING PRE MRNA) of 3.61 and an NES (Reactome gene set RECRUITMENT OF MITOTIC CENTROSOME PROTEINS AND COMPLEXES) of 2.55. The NES (Reactome gene set REGULATION OF MRNA STABILITY BY PROTEINS THAT BIND AU RICH ELEMENTS) was 2.6, the NES (Reactome gene set REGULATION OF ORNITHINE DECARBOXYLASE ODC) was 2.45 and the NES (Reactome gene set RESPIRATORY ELECTRON TRANSPORT ATP SYNTHESIS BY CHEMIOSMOTIC COUPLING AND HEAT PRODUCTION BY UNCOULPLING PROTEINS) was −2.69. It also gave an NES (Reactome gene set RNA POL II TRANSCRIPTION) of 3.32, an NES (Reactome gene set SIGNALING BY GPCR) of −3.35 and an NES (Reactome gene set SIGNALING BY RHO GTPASES) of −2.87. For the same compound, the NES (Reactome gene set TCA CYCLE AND RESPIRATORY ELECTRON TRANSPORT) was −2.8, the NES (Reactome gene set TRANSCRIPTION) was 3.25 and the NES (Reactome gene set TRANSPORT OF MATURE TRANSCRIPT TO CYTOPLASM) was 3.02.
